Here are results for 10 compounds from ChEMBL document CHEMBL1144956, “Chemical synthesis and cytotoxicity of dihydroxylated cyclopentenone analogues of neocarzinostatin chromophore” (Bioorg Med Chem Lett, 2003).

Holding throughout (format): functional, cell-based
The subject of one assay is HT-29. Put plainly: In vitro cytotoxic activity against human tumor cell line HT-29 after incubation for 96 hours. Particulars: HT-29, 96 h.
Another assay deals with CH1. Kind of assay: In vitro cytotoxic activity against human tumor cell line CH1 after incubation for 96 hours. Particulars: CH1, 96 h.
The subject of the next assay is SK-OV-3. Kind of assay: In vitro cytotoxic activity against human tumor cell line SKOV-3 after incubation for 96 hours. As to conditions: SK-OV-3, 96 h.
The subject of assay [1] is A2780. Put plainly: In vitro cytotoxic activity against human tumor cell line A2780 after incubation for 96 hours. Particulars: A2780, 96 h.
The next assay concerns K562. Put plainly: In vitro cytotoxic activity against human leukemic cell line K562 after incubation for 1 hour. Particulars: K562, 1 h.
Assay [2] has as its system A2780. Kind of assay: In vitro cytotoxic activity against human tumor cell line A2780CisR after incubation for 96 hours. Particulars: A2780, 96 h.

As to `O=C(O[C@@H]1C(=O)C(Br)=C[C@H]1O)c1c(O)ccc2ccccc12`, the IC50 was over 25 µM with HT-29; 11 µM with CH1; 9.4 µM in the assay on SK-OV-3; 9.4 µM in the assay with A2780 [1]; 5 µM in the assay with K562; 13 µM with A2780 [2].

With `O=C(O[C@@H]1C=C(Br)C(=O)[C@H]1O)c1c(O)ccc2ccccc12`, the IC50 in the assay with HT-29 was over 25 µM; in the assay with CH1 it was 11 µM; in the assay on SK-OV-3 it was 11 µM; in the assay on A2780 [1] it was 10 µM; with K562, 3.5 µM; in the assay with A2780 [2] it was 17.5 µM.

In the case of `O=C(O[C@H]1[C@H](O)C=C[C@@H]1O)c1c(O)ccc2ccccc12`, in the assay with K562, the IC50 is over 100 µM.

Take `O=C(O[C@@H]1C(=O)C=C[C@H]1O)c1c(O)ccc2ccccc12`: the IC50 is 12 µM in the assay on HT-29; 5.8 µM in the assay with CH1; 3.1 µM in the assay with SK-OV-3; 3.7 µM in the assay with A2780 [1]; 4 µM with K562; 9.4 µM with A2780 [2].

Consider `O=C(O[C@@H]1C=C[C@H](O)[C@H]1O)c1c(O)ccc2ccccc12`, for which the IC50 in the assay with K562 is over 100 µM.

Turning to `COc1cc(C)c2ccc(O)c(C(=O)O[C@@H]3C=CC(=O)[C@H]3O)c2c1`, the IC50 with HT-29 amounted to 11 µM; in the assay on CH1, 2.5 µM; in the assay with SK-OV-3, 2.5 µM; with A2780 [1], 2.5 µM; in the assay with K562 it was 5 µM; in the assay on A2780 [2], 4 µM.

`O=C(O[C@@H]1C=CC(=O)[C@H]1O)c1c(O)ccc2ccccc12`: the IC50 in the assay with HT-29 is 12 µM; with CH1, 4 µM; with SK-OV-3, 2.3 µM; in the assay with A2780 [1] it was 2.7 µM; in the assay on K562, 6 µM; in the assay on A2780 [2], 8.6 µM.

Take `COc1cc(C)c2ccc(O)c(C(=O)O[C@@H]3C=C[C@H](O)[C@H]3O)c2c1`: in the assay on K562, the IC50 is over 100 µM.

For `COc1cc(C)c2ccc(O)c(C(=O)O[C@H]3[C@H](O)C=C[C@@H]3O)c2c1`, in the assay on K562, the 50% inhibitory concentration (IC50) is over 100 µM.

Turning to `COc1cc(C)c2ccc(O)c(C(=O)O[C@@H]3C(=O)C=C[C@H]3O)c2c1`, the IC50 in the assay on HT-29 turned out to be 13 µM; with CH1 it was 11 µM; with SK-OV-3, 7.2 µM; in the assay with A2780 [1], 9.4 µM; in the assay on K562, 4.5 µM; in the assay with A2780 [2], 9 µM.
